In data set [1] the test system is human skin. In words: skin irritation (α), electrotransport of placebo drug (sodium chloride) in 50% propylene glycol with and without hydrocortisone (Example V). The data set is classed as in vivo, human volunteer. As to conditions: FIG. 8; 0.5% (w/v) hydrocortisone in 50% propylene glycol, cathodic and anodic reservoirs; 100 μA/cm^2, 3 h. The protocol: In vivo electrically assisted delivery of a placebo drug (sodium chloride), with a liquid solvent in which hydrocortisone has good solubility, was accomplished both with and without co-delivery of hydrocortisone using electrotransport systems substantially similar to those described in Example II, and having anodic/cathodic reservoir gels of the following formulations: […]
An electrotransport system was constructed having anodic and cathodic reservoirs comprised of 350 μl of gel formulation I. This system was applied on the left forearm of a human volunteer. The skin contact area of each electrode gel was 2 cm^2. The anode material used in the systems was silver foil and the cathode material used in each of the systems was silver chloride. The electrodes were connected to a galvanostat preset to deliver a constant current of 100 μA/cm^2. Simultaneously another electrotransport system with similar size and current density, but whose anodic and cathodic reservoirs were comprised of 350 μl of gel formulation II was applied on the right forearm of the same volunteer. The systems were worn for 3 hours. After removal, skin irritation (α) was monitored using the Minolta Chroma Meter.

Data set [2] relates to skin. Description: skin irritation (α), electrotransport of placebo drug (sodium chloride), hydrocortisone in the cathodic reservoir (Example IV). The data set is classed as in vivo. The source says:
In vivo electrically assisted delivery of a placebo drug (sodium chloride) with various liquid solvents was accomplished both with and without co-delivery of an anti-inflammatory agent (hydrocortisone) using electrotransport systems substantially similar to those described in Example II. Four different electrotransport system configurations were constructed.
The anode material used in each of the systems was silver foil and the cathode material used in each of the systems was silver chloride. The size of the gels and the applied current levels were the same as in Example II.

For data set [3], the system named is human skin.
Data set [4] relates to skin. As to conditions: otherwise equivalent reservoirs; cited from earlier work.
In data set [5] the test system is skin. As to conditions: prolonged exposure; cited from earlier work.
The conditions of data set [6]: water; cited from earlier work.
Data set [7] can be described thus: metoclopramide blood plasma concentrations during/after electrotransport delivery with and without hydrocortisone (HPLC). The settings on record: FIG. 3; 10% MCP, 0.5% HC in anodic reservoir vs MCP alone; 100 μA/cm^2, 4 h. In kind it is in vivo, human volunteers. The text has this: MCP is a water soluble drug salt.

In the case of `C[C@]12CCC(=O)C=C1CC[C@@H]1[C@@H]2C(O)C[C@@]2(C)[C@H]1CC[C@]2(O)C(=O)CO` (stereo partly shown) [hydrocortisone, 11,17,21-trihydroxypregn-4-ene-3,20-dione], the “erythema compared to reservoirs containing no hydrocortisone” value in the data set on human skin [1] was “substantially less erythema”. The “reduction of erythema of the skin in contact with the cathodic reservoir” value with skin [2] (0.25 mg/mL hydrocortisone in water) is listed as “insufficient to reduce erythema”. Moreover, in the data set on skin [2] (FIG. 7, system 1: 5 mg/mL hydrocortisone, 40% ethanol, vs 40% ethanol without hydrocortisone), the “reddening of the skin in contact with the cathodic reservoir” value is given as “significant reduction in the reddening of the skin”. In addition, in the data set on skin [2] (System 3: 0.25 mg/mL hydrocortisone in water, no ethanol), the “erythema values, System 3 vs System 4” value is “substantially the same (i.e., at most only about one α unit apart)”. Further, the “skin irritation (α) vs. anodic reservoirs containing no hydrocortisone” value with human skin [3] (FIG. 2, 0.5% HC with 10% MCP in anodic reservoir, 4 h wear, 1, 4, 24, 48 h after removal) was “less skin irritation”. In addition, the “electroosmotic flux from a cathodic reservoir vs. equivalent anodic reservoir” value with skin [4] was “substantially lower”. Also, the “local side effects such as skin thinning” value in the data set with skin [5] is recorded as “does not result in unacceptable local side effects such as skin thinning”.
In the case of `CCN(CC)CCNC(=O)c1cc(Cl)c(N)cc1OC` [metoclopramide HCI], the solubility in words result in data set [6] is listed as “water soluble”. The “skin irritation caused by the drug” value in the data set on human skin [3] (in vivo) is reported as “skin irritating drug”. Besides, in data set [7], the “effect of addition of hydrocortisone on delivery of metoclopramide into the bloodstream” value is reported as “does not significantly affect the delivery of metoclopramide into the bloodstream”.

(Values after patent US5865792A, “Reduction of skin irritation during electrotransport delivery” (priority 1997, dated 1999).)
